Measurements as given in ChEMBL document CHEMBL1130130, “New approaches to antiglaucoma therapy” (1997).

System: Oryctolagus cuniculus
Test: Compound was evaluated for ocular hypotensive effects (intraocular pressure, IOP) by administering 0.5% of the drug twice daily
Type: functional, Eye

Compound `CC(C)(C)NC[C@H](O)COc1nsnc1N1CCOCC1` [TIMOLOL] has an Activity of 21%.
